According to ChEMBL document CHEMBL1146318, “Synthesis and SAR of novel 2-arylthiazolidinones as selective analgesic N-type calcium channel blockers” (Bioorg Med Chem Lett, 2007):

How the values were obtained:
[1] = molecular target: Voltage-dependent N-type calcium channel subunit alpha-1B (Homo sapiens, UniProt Q00975); test: Inhibition of calcium channel Cav2.2 in IMR32 cells; assay type: cell-based, IMR-32
[2] = Inhibition of calcium channel L type in IMR32 cells; assay type: cell-based, Homo sapiens; conditions: imr-32
[3] = organism: Homo sapiens; test: Selectivity for calcium channel Cav2.2 over calcium channel L type

Chain of Voltage-dependent N-type calcium channel subunit alpha-1B (Q00975 whole entry): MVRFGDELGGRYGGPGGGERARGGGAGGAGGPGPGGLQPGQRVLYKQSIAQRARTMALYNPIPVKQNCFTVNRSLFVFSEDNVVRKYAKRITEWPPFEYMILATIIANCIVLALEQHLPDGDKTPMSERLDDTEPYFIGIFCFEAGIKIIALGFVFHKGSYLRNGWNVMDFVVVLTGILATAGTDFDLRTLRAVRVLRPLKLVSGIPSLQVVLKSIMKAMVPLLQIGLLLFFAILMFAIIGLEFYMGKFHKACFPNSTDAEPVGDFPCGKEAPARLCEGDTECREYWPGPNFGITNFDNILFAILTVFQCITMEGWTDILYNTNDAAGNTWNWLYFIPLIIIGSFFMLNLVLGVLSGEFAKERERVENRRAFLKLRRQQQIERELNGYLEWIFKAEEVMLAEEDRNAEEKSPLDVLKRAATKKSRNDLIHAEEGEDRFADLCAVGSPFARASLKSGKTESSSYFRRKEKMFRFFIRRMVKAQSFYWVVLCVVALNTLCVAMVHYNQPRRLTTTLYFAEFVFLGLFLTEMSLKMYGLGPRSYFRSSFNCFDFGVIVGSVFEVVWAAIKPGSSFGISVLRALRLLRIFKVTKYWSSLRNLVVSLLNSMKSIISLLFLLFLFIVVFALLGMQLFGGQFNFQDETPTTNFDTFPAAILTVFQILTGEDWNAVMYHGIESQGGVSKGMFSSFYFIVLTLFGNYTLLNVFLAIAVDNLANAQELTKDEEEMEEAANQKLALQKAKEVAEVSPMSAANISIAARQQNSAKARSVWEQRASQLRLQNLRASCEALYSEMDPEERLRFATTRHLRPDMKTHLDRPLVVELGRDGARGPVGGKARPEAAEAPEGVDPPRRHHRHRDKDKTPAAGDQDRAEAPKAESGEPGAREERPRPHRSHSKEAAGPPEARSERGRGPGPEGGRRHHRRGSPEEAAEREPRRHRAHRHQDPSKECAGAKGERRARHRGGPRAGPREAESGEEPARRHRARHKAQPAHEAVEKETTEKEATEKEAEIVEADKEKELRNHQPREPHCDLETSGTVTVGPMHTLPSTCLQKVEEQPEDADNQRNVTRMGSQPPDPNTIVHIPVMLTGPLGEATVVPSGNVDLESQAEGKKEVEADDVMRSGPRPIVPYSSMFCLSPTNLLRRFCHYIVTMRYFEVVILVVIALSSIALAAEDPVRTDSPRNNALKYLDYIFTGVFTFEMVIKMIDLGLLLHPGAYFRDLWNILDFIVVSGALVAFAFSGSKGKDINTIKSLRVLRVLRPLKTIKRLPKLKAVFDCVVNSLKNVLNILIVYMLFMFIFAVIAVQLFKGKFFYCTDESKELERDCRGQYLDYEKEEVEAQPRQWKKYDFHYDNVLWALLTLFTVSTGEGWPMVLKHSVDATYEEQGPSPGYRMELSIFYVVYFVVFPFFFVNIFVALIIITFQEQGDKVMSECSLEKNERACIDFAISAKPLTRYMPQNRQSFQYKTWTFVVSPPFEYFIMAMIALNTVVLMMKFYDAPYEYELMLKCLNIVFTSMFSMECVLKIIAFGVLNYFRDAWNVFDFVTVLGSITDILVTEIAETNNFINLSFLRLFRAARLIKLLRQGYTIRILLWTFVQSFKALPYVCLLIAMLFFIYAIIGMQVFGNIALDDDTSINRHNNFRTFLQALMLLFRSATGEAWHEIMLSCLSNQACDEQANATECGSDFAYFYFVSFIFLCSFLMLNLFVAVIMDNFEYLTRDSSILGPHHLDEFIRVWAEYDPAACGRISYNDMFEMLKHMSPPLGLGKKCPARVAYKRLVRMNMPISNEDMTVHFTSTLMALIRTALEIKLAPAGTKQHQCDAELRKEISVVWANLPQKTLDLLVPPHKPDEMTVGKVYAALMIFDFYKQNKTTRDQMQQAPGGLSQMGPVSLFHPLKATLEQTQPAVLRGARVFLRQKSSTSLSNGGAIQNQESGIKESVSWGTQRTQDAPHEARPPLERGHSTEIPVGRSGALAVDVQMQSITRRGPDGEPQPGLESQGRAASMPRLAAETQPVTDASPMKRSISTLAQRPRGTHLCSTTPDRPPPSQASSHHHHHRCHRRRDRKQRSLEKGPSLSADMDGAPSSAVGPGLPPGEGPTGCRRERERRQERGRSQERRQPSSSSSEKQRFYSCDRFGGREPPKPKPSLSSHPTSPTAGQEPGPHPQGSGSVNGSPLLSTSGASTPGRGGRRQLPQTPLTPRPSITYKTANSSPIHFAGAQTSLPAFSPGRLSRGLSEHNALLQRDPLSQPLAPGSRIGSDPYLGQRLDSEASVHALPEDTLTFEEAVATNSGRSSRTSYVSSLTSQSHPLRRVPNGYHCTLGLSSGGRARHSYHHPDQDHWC

Compound	IC50 [1]	IC50 [2]	Ratio IC50 [3]
COc1ccc(-c2ncccc2C2SCC(=O)N2CC(C)C)cc1 (stereo unspecified)	8.93 µM	20.6 µM	2.3
CC(C)CNC(=O)CC1SC(c2ccc(F)c(Br)c2)N(CCc2ccccn2)C1=O (stereo unspecified)	1.34 µM	2.92 µM	2.2
COc1ccc(CN2CCN(C(c3ccc(F)cc3)c3ccc(F)cc3)CC2)c(OC)c1OC [LOMERIZINE]	2.43 µM	1.48 µM	0.6
Cc1ccc(-c2cnccc2C2SCC(=O)N2CC(C)C)cc1 (stereo unspecified)	0.59 µM	8.03 µM	13.6
CN(C)c1ccc(-c2cnccc2C2SCC(=O)N2C2CCCC2)cc1 (stereo unspecified)	10.7 µM	18.2 µM	1.7
CC(C)CN1C(=O)CSC1c1ccncc1-c1ccc(F)cc1 (stereo unspecified)	4.15 µM	11.7 µM	2.8
COc1ccc(-c2cnccc2C2SCC(=O)N2CC(C)C)cc1 (stereo unspecified)	1.4 µM	13.7 µM	9.5
CC(C)CNC(=O)CC1SC(c2cccc(C(F)(F)F)c2)N(CCc2ccccn2)C1=O (stereo unspecified)	1.29 µM	2.08 µM	1.6
O=C1CSC(c2ccncc2-c2ccc(C(F)(F)F)cc2)N1C1CCCC1 (stereo unspecified)	1.37 µM	4.25 µM	3.1
O=C1CSC(c2cnccc2-c2ccc(Br)cc2)N1C1CC1 (stereo unspecified)	1.3 µM	4.69 µM	3.6
O=C1CSC(c2ccc(F)c(Br)c2)N1CCc1ccccn1 (stereo unspecified)	1.68 µM	9.51 µM	5.6
O=C1C[S+]([O-])C(c2ccc(F)c(Br)c2)N1CCc1ccccn1 (stereo unspecified)	29.8 µM	> 30 µM	–
O=C1CS(=O)(=O)C(c2ccc(F)c(Br)c2)N1CCc1ccccn1 (stereo unspecified)	8.13 µM	> 30 µM	–
Fc1ccc(C(c2ccc(F)cc2)N2CCN(C/C=C/c3ccccc3)CC2)cc1 [FLUNARIZINE]	1.67 µM	0.78 µM	0.5
C=Cc1ccc(-c2cnccc2C2SCC(=O)N2CC(C)C)cc1 (stereo unspecified)	0.53 µM	4.16 µM	7.8
CCC(C)N1C(=O)CSC1c1cnccc1-c1ccc(Br)cc1 (stereo unspecified)	0.21 µM	2.33 µM	11.2
C=Cc1ccc(-c2ncccc2C2SCC(=O)N2CC(C)C)cc1 (stereo unspecified)	1.33 µM	4.23 µM	3.2
CC(C)CN1C(=O)C[S+]([O-])C1c1cnccc1-c1ccc(Br)cc1 (stereo unspecified)	3.97 µM	15 µM	3.8
CC(C)CN1C(=O)CSC1c1cccnc1-c1ccc(F)cc1 (stereo unspecified)	4.92 µM	12.9 µM	2.6
CC(C)CN1C(=O)CSC1c1cccnc1-c1ccc(Br)cc1 (stereo unspecified)	0.7 µM	6.2 µM	8.9
O=C1CSC(c2cccc(C(F)(F)F)c2)N1CCc1ccccn1 (stereo unspecified)	2.41 µM	11.5 µM	4.8
O=C1CSC(c2cnccc2-c2ccc(Br)cc2)N1C1CCCCC1 (stereo unspecified)	1.32 µM	2.01 µM	1.5
CC(C)CN1C(=O)COC1c1cnccc1-c1ccc(Br)cc1 (stereo unspecified)	4.42 µM	29.3 µM	6.6
CC(C)CN1C(=O)CSC1c1ccncc1-c1ccc(Cl)cc1 (stereo unspecified)	0.58 µM	4.58 µM	7.9
O=C1CSC(c2cnccc2-c2ccc(Br)cc2)N1C1CCCC1 (stereo unspecified)	0.63 µM	10.3 µM	16.3
CC(C)CN1C(=O)CSC1c1cccnc1-c1ccc(Cl)cc1 (stereo unspecified)	1.26 µM	7.49 µM	5.9
Cc1ccc(-c2ncccc2C2SCC(=O)N2CC(C)C)cc1 (stereo unspecified)	1.96 µM	12.5 µM	6.4
CC(C)CN1C(=O)CSC1c1cnccc1-c1ccccc1 (stereo unspecified)	3.98 µM	16.4 µM	4.1
CC(C)CN1C(=O)CSC1c1ccncc1-c1ccc(Br)cc1 (stereo unspecified)	0.5 µM	3.08 µM	6.1

Further lines, results first:

IC50 [1]	IC50 [2]	Ratio IC50 [3]	Compound
1.29 µM	6.66 µM	5.2	CC(C)CN1C(=O)CSC1c1cnccc1-c1ccc(F)cc1 (stereo unspecified)
–	–	3.9	CC(C)CN1C(=O)CS[C@@H]1c1cnccc1-c1ccc(C(F)(F)F)cc1 (stereo in doubt; 58) [listing 1 of 2 here]
–	–	31.8	Cc1ccc(-c2ccncc2[C@H]2SCC(=O)N2CC(C)C)cc1 (stereo in doubt; 61) [listing 1 of 2 here]
1.07 µM	10.3 µM	9.6	CC(C)CN1C(=O)CSC1c1cnccc1-c1ccc(C(F)(F)F)cc1 (stereo unspecified)
0.49 µM	8.2 µM	16.7	Cc1ccc(-c2ccncc2C2SCC(=O)N2CC(C)C)cc1 (stereo unspecified)
4.44 µM	12.9 µM	–	Cc1ccc(-c2ccncc2[C@H]2SCC(=O)N2CC(C)C)cc1 (stereo in doubt; 60) [listing 1 of 2 here]
3.32 µM	12.9 µM	–	CC(C)CN1C(=O)CS[C@@H]1c1cnccc1-c1ccc(C(F)(F)F)cc1 (stereo in doubt; 58) [listing 2 of 2 here]
–	–	29.1	CC(C)CN1C(=O)CS[C@@H]1c1cnccc1-c1ccc(C(F)(F)F)cc1 (stereo in doubt; 59) [listing 1 of 2 here]
0.51 µM	9.99 µM	19.5	C=Cc1ccc(-c2ccncc2C2SCC(=O)N2CC(C)C)cc1 (stereo unspecified)
0.88 µM	5.54 µM	6.3	CCc1ccc(-c2ccncc2C2SCC(=O)N2CC(C)C)cc1 (stereo unspecified)
–	–	2.9	Cc1ccc(-c2ccncc2[C@H]2SCC(=O)N2CC(C)C)cc1 (stereo in doubt; 60) [listing 2 of 2 here]
0.56 µM	5.44 µM	9.7	CC(C)CN1C(=O)CSC1c1cccnc1-c1ccc(C(F)(F)F)cc1 (stereo unspecified)
0.73 µM	23.2 µM	–	Cc1ccc(-c2ccncc2[C@H]2SCC(=O)N2CC(C)C)cc1 (stereo in doubt; 61) [listing 2 of 2 here]
0.66 µM	8.41 µM	12.8	CC(C)CN1C(=O)CSC1c1cnccc1-c1ccc(Br)cc1 (stereo unspecified)
0.77 µM	22.9 µM	–	CC(C)CN1C(=O)CS[C@@H]1c1cnccc1-c1ccc(C(F)(F)F)cc1 (stereo in doubt; 59) [listing 2 of 2 here]
0.6 µM	2.18 µM	3.6	CC(C)CN1C(=O)CSC1c1cnccc1-c1ccc(Cl)cc1 (stereo unspecified)
